Measured values reported in patent US11266643B2, “Triaryl compounds for treatment of PD-L1 diseases” (CHEMOCENTRYX, INC., priority 2019, dated 2022).

Biological target: human PD-L1 (Homo sapiens (Human), UniProt Q9NZQ7)
Experiment: Enzyme-Linked Immunosorbent Assay (ELISA), PD-1/PD-L1 binding
Protocol: 96 Well plates were coated with […] of human PD-L1 (obtained from R&D) in PBS overnight at 4° C. The wells were then blocked with 2% BSA in PBS (W/V) with 0.05% TWEEN-20 for 1 hour at 37° C. The plates were washed 3 times with PBS/0.05% TWEEN-20 and the compounds were serial diluted (1:5) in dilution medium and added to the ELISA plates. Human PD-1 […] 0.31 μg/mL (ACRO Biosystems) were added and incubated for 1 hour at 37° C. then washed 3 times with PBS/0.05% TWEEN-20. A second block was performed with 2% BSA in PBS (W/V)/0.05% TWEEN-20 for 10 min at 37° C. and the plates were washed 3 times with PBS/0.05% TWEEN-20. Streptavidin-HRP was added for 1 hour at 37° C. then the plates were washed 3 times with PBS/0.05% TWEEN-20. TMB substrate was added and reacted for 20 min at 37° C. A stop solution (2 N aqueous H2SO4) was added. The absorbance was read at 450 nm using a micro-plate spectrophotometer.
Using the methods described in the Examples above, the compounds in Table 2 were prepared & tested for biological activity using the ELISA method described above.

[1] = plate-coated human PD-L1, biotinylated Human PD-1, absorbance at 450 nm
[2] = PD-1/PD-L1 ELISA, human PD-L1 coated plates, Table 1
[3] = human PD-1/PD-L1 ELISA, plates coated with human PD-L1

Chain of human PD-L1 (Q9NZQ7 19-239): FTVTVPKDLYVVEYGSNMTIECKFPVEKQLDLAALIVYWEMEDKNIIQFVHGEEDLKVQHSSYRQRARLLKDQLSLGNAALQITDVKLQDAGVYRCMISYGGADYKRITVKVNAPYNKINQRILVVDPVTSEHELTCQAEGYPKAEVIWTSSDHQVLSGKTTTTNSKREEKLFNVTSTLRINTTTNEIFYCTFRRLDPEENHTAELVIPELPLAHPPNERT

IC50 [2]	IC50 [3]	SMILES	also measured
–	–	COc1cc(-c2cccc(-c3cccc(NC(=O)c4cn(C)c(=O)n(C)c4=O)c3C)c2Cl)cc(F)c1CN(C)[C@@H]1CCOC1 [Example 2.043]	IC50 [1]: < 10 nM
10 to 1000 nM	–	COc1cc(-c2cccc(-c3cccc(NC(=O)C4CN(CC(=O)O)CCO4)c3C)c2C)cc(F)c1CN (stereo not drawn) [Example 1.314]	–
–	< 10 nM	COc1cc(-c2cccc(-c3cccc(NC(=O)c4cncn(C)c4=O)c3C)c2C)cc(F)c1CN[C@@H]1CCOC[C@@H]1O [Example 1.066]	–
–	1000 to 10000 nM	COc1cc(-c2cccc(-c3cccc(NC(=O)c4c[nH]c(=O)n(C)c4=O)c3C)c2C)cc(F)c1CN1CCNC(=O)C1 [Example 1.183]	–
< 10 nM	–	COc1cc(-c2cccc(-c3cccc(NC(=O)c4ncc(C(N)=O)cn4)c3C)c2C)cc(F)c1CN [Example 1.299]	–
< 10 nM	–	COc1cc(-c2cccc(-c3cccc(Nc4nccc5nccnc45)c3C)c2C)cc(F)c1CN[C@H](C)CO [Example 1.207]	–
1000 to 10000 nM	–	COc1cc(-c2cccc(-c3cccc(NC(=O)c4ccccn4)c3C)c2C)cc(F)c1CN1CCCC[C@@H]1C(=O)O [Example 1.377]	–
10 to 1000 nM	–	COc1cc(-c2cccc(-c3cccc(NC(=O)c4cccc(N)n4)c3C)c2C)cc(F)c1CN [Example 1.386]	–
–	< 10 nM	COc1cc(-c2cccc(-c3cccc(NC(=O)c4cn(C)c(=O)n(C)c4=O)c3C)c2C)cc(F)c1CN[C@H]1CCC[C@@H]1O [Example 1.129]	–
–	–	COc1cc(-c2cccc(-c3cccc(NC(=O)c4cn(C)c(=O)n(C)c4=O)c3C)c2Cl)cc(F)c1CN[C@@H]1CCCOC1 [Example 2.067]	IC50 [1]: < 10 nM
< 10 nM	–	COc1cc(-c2cccc(-c3cccc(NC(=O)c4cccn(C)c4=O)c3C)c2C)cc(F)c1CNCCO [Example 1.300]	–
< 10 nM	–	COc1cc(-c2cccc(-c3cccc(NC(=O)c4c[nH]c(=O)n(C)c4=O)c3C)c2C)cc(F)c1CN[C@@H](C)CO [Example 1.226]	–
10 to 1000 nM	–	COc1cc(-c2cccc(-c3cccc(NC(=O)c4ccccn4)c3)c2C)cc(F)c1CN1CC(C(=O)O)C1 [Example 1.375]	–
–	< 10 nM	COc1cc(-c2cccc(-c3cccc(Nc4nccc5nccnc45)c3C)c2C)cc(F)c1CN[C@H]1CCC[C@@H]1O [Example 1.144]	–
–	–	COc1cc(-c2cccc(-c3cccc(NC(=O)c4cn(C)c(=O)n(C)c4=O)c3C)c2Cl)cc(F)c1CN[C@H]1COC[C@H]1O [Example 2.093]	IC50 [1]: < 10 nM
< 10 nM	–	COc1cc(-c2cccc(-c3cccc(NC(=O)c4cnc(N)cn4)c3C)c2C)cc(F)c1CN1CC(C(=O)O)C1 [Example 1.332]	–
–	< 10 nM	COc1cc(-c2cccc(-c3cccc(NC(=O)c4cn(C)c(=O)n(C)c4=O)c3C)c2Cl)cc(F)c1CNC[C@@H]1CCC(=O)N1 [Example 1.036]	–
–	–	CCOc1cc(-c2cccc(-c3cccc(NC(=O)c4cn(C)c(=O)n(C)c4=O)c3C)c2Cl)cc(F)c1CN[C@@H]1CCOC[C@@H]1O [Example 2.039]	IC50 [1]: < 10 nM
–	–	CCOc1cc(-c2cccc(-c3cccc(NC(=O)c4cn(C)c(=O)n(C)c4=O)c3C)c2Cl)ccc1CN[C@@H]1CCOC[C@@H]1O [Example 2.048]	IC50 [1]: < 10 nM

IC50 [2]	IC50 [3]	SMILES	also measured
10 to 1000 nM	–	COc1cc(-c2cccc(-c3cccc(NC(=O)c4c(C)cc(C)n(C)c4=O)c3C)c2C)cc(F)c1CN1CC(C(=O)O)C1 [Example 1.275]	–
–	–	COc1cc(-c2cccc(-c3cccc(Nc4nccc5nccnc45)c3C)c2Cl)cc(F)c1CNCC1(O)CC1 [Example 2.111]	IC50 [1]: < 10 nM
–	< 10 nM	COc1cc(-c2cccc(-c3cccc(NC(=O)c4cccn(C)c4=O)c3C)c2C)cc(F)c1CN[C@H]1CNC(=O)C1 [Example 1.142]	–
–	1000 to 10000 nM	COc1cc(-c2cccc(-c3cccc(NC(=O)c4cncn(C)c4=O)c3C)c2C)cc(F)c1CN1CCNC(=O)C1 [Example 1.182]	–
–	–	COc1cc(-c2cccc(-c3cccc(NC(=O)c4cn(C)c(=O)n(C)c4=O)c3Cl)c2Cl)cc(F)c1CN(C)[C@@H]1CNC(=O)C1 [Example 2.068]	IC50 [1]: < 10 nM
< 10 nM	–	COc1cc(-c2cccc(-c3cccc(Nc4nccc5ccn(C)c(=O)c45)c3C)c2C)cc(F)c1CN1CC(C(=O)O)C1 [Example 1.278]	–
10 to 1000 nM	–	COC(=O)c1ccc(C(=O)Nc2cccc(-c3cccc(-c4cc(F)c(CN)c(OC)c4)c3C)c2C)nc1 [Example 1.353]	–
–	< 10 nM	COc1cc(-c2cccc(-c3cccc(NC(=O)c4c[nH]c(=O)n(C)c4=O)c3C)c2C)cc(F)c1CNCCCC(N)=O [Example 1.083]	–
–	–	COc1cc(-c2cccc(-c3cccc(NC(=O)c4cn(C)c(=O)n(C)c4=O)c3Cl)c2Cl)cc(F)c1CN[C@@H]1COC[C@H]1O [Example 2.075]	IC50 [1]: < 10 nM
–	< 10 nM	COc1cc(-c2cccc(-c3cccc(NC(=O)c4cccn(C)c4=O)c3C)c2C)cc(F)c1CN[C@@H]1CNC(=O)C1 [Example 1.171]	–
–	< 10 nM	COc1cc(-c2cccc(-c3cccc(NC(=O)c4cccn(C)c4=O)c3C)c2C)cc(F)c1CNC(C)C [Example 1.170]	–
< 10 nM	–	COc1cc(-c2cccc(-c3cccc(NC(=O)c4cccn(C)c4=O)c3C)c2C)cc(F)c1CN [Example 1.311]	–
–	10 to 1000 nM	COc1cc(-c2cccc(-c3cccc(Nc4nccc5nccnc45)c3C)c2C)cc(F)c1CNCc1ccn[nH]1 [Example 1.116]	–
10 to 1000 nM	–	COc1cc(-c2cccc(-c3cccc(Nc4nccc5c4C(=O)N(C)CC5)c3C)c2C)cc(F)c1CNCCO [Example 1.215]	–
–	–	COc1cc(-c2cccc(-c3cccc(NC(=O)c4cn(C)c(=O)n(C)c4=O)c3Cl)c2Cl)cc(F)c1CN[C@H]1COCC[C@@H]1O [Example 2.071]	IC50 [1]: < 10 nM
< 10 nM	–	COc1cc(-c2cccc(-c3cccc(NC(=O)c4c[nH]c(=O)n(C)c4=O)c3C)c2C)cc(F)c1CNCC(=O)O [Example 1.261]	–
–	< 10 nM	COc1cc(-c2cccc(-c3cccc(NC(=O)c4cn(C)c(=O)n(C)c4=O)c3C)c2C)cc(F)c1CN(C)C[C@@H]1CCC(=O)N1 [Example 1.175]	–
10 to 1000 nM	–	COC(=O)c1ccc(C(=O)Nc2cccc(-c3cccc(-c4cc(F)c(CNCCO)c(OC)c4)c3C)c2C)nc1 [Example 1.334]	–
–	< 10 nM	COc1cc(-c2cccc(-c3cccc(NC(=O)c4cn(C)c(=O)n(C)c4=O)c3C)c2C)cc(F)c1CNC[C@H]1CCC(=O)N1 [Example 1.155]	–

IC50 [2]	IC50 [3]	SMILES	also measured
–	< 10 nM	COc1cc(-c2cccc(-c3cccc(NC(=O)c4nn(C)c(=O)n(C)c4=O)c3C)c2C)cc(F)c1CNCC(C)(C)C(N)=O [Example 1.063]	–
–	10 to 1000 nM	COc1cc(-c2cccc(-c3cccc(Nc4nccc5nccnc45)c3Cl)c2C)cc(F)c1CN[C@@H]1CNC(=O)C1 [Example 1.023]	–
–	< 10 nM	COc1cc(-c2cccc(-c3cccc(NC(=O)c4nn(C)c(=O)n(C)c4=O)c3C)c2C)cc(F)c1CN[C@@H]1CNC(=O)C1 [Example 1.105]	–
10 to 1000 nM	–	COc1cc(-c2cccc(-c3cccc(NC(=O)c4ncco4)c3C)c2C)cc(F)c1CN1CC(C(=O)O)C1 [Example 1.349]	–
–	< 10 nM	COc1cc(-c2cccc(-c3cccc(Nc4nccc5nccnc45)c3C)c2C)cc(F)c1CNC(C)C [Example 1.181]	–
–	–	COc1cc(-c2cccc(-c3cccc(NC(=O)c4cn(C)c(=O)n(C)c4=O)c3Cl)c2Cl)cc(F)c1CN1CCC[C@@H](C(=O)O)C1 [Example 2.003]	IC50 [1]: < 10 nM
–	–	COc1cc(-c2cccc(-c3cccc(NC(=O)c4cn(C)c(=O)n(C)c4=O)c3Cl)c2Cl)cc(F)c1CN1CCC(C)(O)CC1 [Example 2.009]	IC50 [1]: < 10 nM
< 10 nM	–	COc1cc(-c2cccc(-c3cccc(NC(=O)c4c[nH]c(=O)n(C)c4=O)c3C)c2C)cc(F)c1CN[C@@H]1CNC(=O)C1 [Example 1.229]	–
–	< 10 nM	COc1cc(-c2cccc(-c3cccc(NC(=O)c4cn(C)c(=O)n(C)c4=O)c3C)c2C)cc(F)c1CNCCC(N)=O [Example 1.114]	–
10 to 1000 nM	–	COc1cc(-c2cccc(-c3cccc(Nc4cccc5c4C(=O)N(C)C5)c3C)c2C)cc(F)c1CN1CC(C(=O)O)C1 [Example 1.250]	–
–	< 10 nM	COc1cc(-c2cccc(-c3cccc(NC(=O)c4cn(C)c(=O)n(C)c4=O)c3C)c2C)cc(F)c1CNCC1CCCNC1=O (stereo not drawn) [Example 1.095]	–
< 10 nM	–	COc1cc(-c2cccc(-c3cccc(NC(=O)c4cncn(C)c4=O)c3C)c2C)cc(F)c1CNCC(=O)O [Example 1.267]	–
–	< 10 nM	COc1cc(-c2cccc(-c3cccc(NC(=O)c4cn(C)c(=O)n(C)c4=O)c3C)c2C)cc(F)c1CNCc1cn(C)c(=O)n(C)c1=O [Example 1.146]	–
–	< 10 nM	COc1cc(-c2cccc(-c3cccc(NC(=O)c4c[nH]c(=O)n(C)c4=O)c3C)c2C)cc(F)c1CNCc1ccn[nH]1 [Example 1.134]	–
–	< 10 nM	COc1cc(-c2cccc(-c3cccc(NC(=O)c4cncn(C)c4=O)c3C)c2C)cc(F)c1CN[C@@H]1CC[C@H]1O (racemic) [Example 1.163]	–
10 to 1000 nM	–	COc1cc(-c2cccc(-c3cccc(Nc4nccc5nccnc45)c3C)c2C)cc(F)c1CNCC(N)=O [Example 1.239]	–
–	< 10 nM	COc1cc(-c2cccc(-c3cccc(NC(=O)c4nn(C)c(=O)n(C)c4=O)c3C)c2C)cc(F)c1CNC[C@H]1CCC(=O)N1 [Example 1.068]	–
–	< 10 nM	COc1cc(-c2cccc(-c3cccc(NC(=O)c4nn(C)c(=O)n(C)c4=O)c3C)c2C)cc(F)c1CNC1CCNC(=O)C1 (stereo not drawn) [Example 1.055]	–
–	–	COc1cc(-c2cccc(-c3cccc(NC(=O)c4cn(C)c(=O)n(C)c4=O)c3Cl)c2Cl)cc(F)c1CN[C@@H]1CCOC1 [Example 2.065]	IC50 [1]: < 10 nM
